Measurements: patent US9850247B2 (Almac Discovery Limited, priority 2013, dated 2017)

Experiments:
[1] = CLint estimates using human liver microsomes (Method 4); format: in vitro ADME; settings: pH 7.4, 1 μM compound, read-out: Mics - CLint (HLM CLint)
How it was run: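 Compound at 1 μM (0.1% DMSO) incubated with human liver microsomes (0.5 mg protein/mL) in 0.1 M phosphate pH 7.4 at 37 °C, started with 1 mM NADPH. Samples taken 2–50 min, quenched in methanol, measured by LC/MS/MS (MRM). Half-life and CLint derived from the slope of ln peak area versus time.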

[2] = tested on: phospho-cdc2 (Tyr15) in HT-29 cells; experiment: Effect on phosphorylation of cdc2 at Tyr15, PathScan ELISA (Method 2); format: cell-based; settings: Homo sapiens, 8 h, eight hours incubation, read-out: HT29 pCDC2 method 2
Protocol: Method 2: Determining the Effect of Compounds on the phosphorylation of cdc2 at Tyr15
The colorectal cancer cell lines HT-29 and HCT-116 were purchased from the ATCC and routinely maintained in McCoy's Medium (Invitrogen) supplemented with 10% Foetal Calf Serum.
The cells were trypsinised from their growing vessel and counted, 100 μL of cell suspension containing 6000 cells was pipetted into black 96 well Co-star plates and incubated overnight to allow adherence to the surface at a temperature of 37° C. and an atmosphere of 5% CO2. Test compounds were formulated in DMSO and diluted in foetal calf serum supplemented medium. Incubating medium was removed by aspiration and diluted drug supplemented medium added to each well.
The plate was returned to the incubator for an additional eight hours at 37° C. and an atmosphere of 5% CO2. Post incubation, the drug supplemented medium was aspirated from each well and the cells were washed once in ice-cold phosphate buffered saline (PBS). 100 μL of cell lysis buffer (Cell Signalling Technologies #9803) containing 20 mM Tris, 150 mM NaCl, 1 mM EDTA, 1 mM EGTA, 1% Triton-X100, 2.5 mM sodium pyrophosphate, 1 mM glycerophosphate, 1 mM Na3VO4 and 1 μg/mL leupeptin was added to each well of the 96 well plate and incubated at 4° C. for 30 min. The samples on the plate were snap frozen at −80° C. until required. Immediately before the continuation of the assay, the sample plate was thawed and centrifuged at 4° C. for 10 min and the supernatant transferred to secondary tubes or 96 well plate.
Cell supernatant was mixed in a ratio of 1:1 with sample dilutent buffer and vortexed for one minute. 100 μL of diluted sample was pipetted into pre-coated plates containing a rabbit polyclonal antibody for phospho-cdc2 (Tyr15) (Cell Signalling Technologies PathScan kit #7176). The plate was sealed and incubated overnight at 4° C.
The plate seal was removed and the well contents aspirated, followed by 3×5 min washes with 200 μL of diluted wash buffer. Between each wash the plate was tapped firmly onto blotting paper to ensure the removal of all kit solution. 100 μL of kit detection antibody was added to each well and the plate re-sealed and incubated at 37° C. for 1 h. Post incubation the plate was washed and processed in a similar manner to that previously described.
100 μL of horseradish peroxidise-linked secondary antibody was added to each test well, the plate sealed and incubated for thirty minutes at 37° C. Post incubation, the plate was washed as previously stated, followed by the addition of 100 μL of 3,3′,5,5′ tetramethylbenzidine (TMB reagent). The plate was sealed and incubated at RT for 30 min.
100 μL of stop solution was added to each well and the underside of the plate wiped with a lint-free tissue, prior to spectrophotometric determination. Absorbance from each well was read at 450 nm within 30 min of the addition of the stop solution.
The percentage of phospho-cdc2 was calculated compared to DMSO control and plotted versus the concentration of inhibitor using GraphPad Prism. Data was fitted using non-linear regression analysis and IC50 values generated.

SMILES	microsomal CLint at 1 μM [1] [µL/min/mg]	IC50 [2] [nM]
C[C@H]1CN(c2ccc(Nc3ncc4c(n3)N(C)CN(c3c(Cl)cccc3Cl)C4=O)cc2)CCN1 [Example 17, (S)-3-(2,6-Dichlorophenyl)-1-methyl-7-((4-(3-methylpiperazin-1-yl)phenyl)amino)-2,3-dihydropyrimido[4,5-d]pyrimidin-4(1H)-one]	15 to 50	≤ 100
CN1CN(c2c(Cl)cccc2Cl)C(=O)c2cnc(Nc3ccc4c(c3)CNCC4)nc21 [Example 14, 3-(2,6-Dichlorophenyl)-1-methyl-7-((1,2,3,4-tetrahydroisoquinolin-7-yl)amino)-2,3-dihydropyrimido[4,5-d]pyrimidin-4(1H)-one]	≤ 15	≤ 100
COc1cc(Nc2ncc3c(n2)N(C)CN(c2c(Cl)cccc2Cl)C3=O)ccc1N1CCNCC1 [Example 3, 3-(2,6-Dichlorophenyl)-7-((3-methoxy-4-(piperazin-1-yl)phenyl)amino)-1-methyl-2,3-dihydropyrimido[4,5-d]pyrimidin-4(1H)-one]	15 to 50	100 to 1000
CN1CN(c2c(Cl)cccc2Cl)C(=O)c2cnc(Nc3ccc(N4CC5CCC(C4)N5)cc3)nc21 [Example 74, 7-((4-(3,8-diazabicyclo[3.2.1]octan-3-yl)phenyl)amino)-3-(2,6-dichlorophenyl)-1-methyl-2,3-dihydropyrimido [4,5-d]pyrimidin-4(1H)-one]	≤ 15	100 to 1000
CN1CN(c2c(Cl)cccc2Cl)C(=O)c2cnc(Nc3ccc(N4CCN(C(=O)CN)CC4)cc3)nc21 [Example 13, 7-((4-(4-(2-Aminoacetyl)piperazin-1-yl)phenyl)amino)-3-(2,6-dichlorophenyl)-1-methyl-2,3-dihydropyrimido[4,5-d]pyrimidin-4(1H)-one]	≤ 15	100 to 1000
[2H]C1([2H])N(C)c2nc(Nc3ccc(N4CCNCC4)cc3)ncc2C(=O)N1c1c(Cl)cccc1Cl [Example 15, 3-(2,6-Dichlorophenyl)-2,2-dideutero-1-methyl-7-((4-(piperazin-1-yl)phenyl)amino)-2,3-dihydropyrimido[4,5-d]pyrimidin-4(1H)-one]	≤ 15	≤ 100
CNCCOc1ccc(Nc2ncc3c(n2)N(C)CN(c2c(Cl)cccc2Cl)C3=O)cc1 [Example 2, 3-(2,6-Dichlorophenyl)-1-methyl-7-((4-(2-(methylamino)ethoxy)phenyl)amino)-2,3-dihydropyrimido[4,5-d]pyrimidin-4(1H)-one]	≤ 15	100 to 1000
CN1CN(c2c(Cl)cccc2Cl)C(=O)c2cnc(Nc3ccc(N4CC5CCC(C4)N5C)c(CO)c3)nc21 [Example 86, 3-(2,6-dichlorophenyl)-7-((3-(hydroxymethyl)-4-(8-methyl-3,8-diazabicyclo[3.2.1]octan-3-yl)phenyl)amino)-1-methyl-2,3-dihydropyrimido[4,5-d]pyrimidin-4(1H)-one]	≤ 15	≤ 100
Cc1cc(Nc2ncc3c(n2)N(C)CN(c2c(Cl)cccc2Cl)C3=O)ccc1C1CCNCC1 [Example 18, 3-(2,6-Dichlorophenyl)-1-methyl-7-((3-methyl-4-(piperidin-4-yl)phenyl)amino)-2,3-dihydropyrimido[4,5-d]pyrimidin-4(1H)-one]	≤ 15	100 to 1000
CN1CN(c2c(Cl)cccc2Cl)C(=O)c2cnc(Nc3ccc(N4CCNCC4)c(C#N)c3)nc21 [Example 11, 3-(2,6-Dichlorophenyl)-7-((3-cyano-4-(piperazin-1-yl)phenyl)amino)-1-methyl-2,3-dihydropyrimido[4,5-d]pyrimidin-4(1H)-one]	≤ 15	100 to 1000

More lines, now with the values ahead:

microsomal CLint at 1 μM [1] [µL/min/mg]	IC50 [2] [nM]	SMILES
15 to 50	≤ 100	CN1CCc2ccc(Nc3ncc4c(n3)N(C)CN(c3c(Cl)cccc3Cl)C4=O)cc2C1 [Example 22, 3-(2,6-Dichlorophenyl)-1-methyl-7-((2-methyl-1,2,3,4-tetrahydroisoquinolin-7-yl)amino)-2,3-dihydropyrimido[4,5-d]pyrimidin-4(1H)-one]
≤ 15	≤ 100	C[C@@H]1CN[C@@H](C)CN1c1ccc(Nc2ncc3c(n2)N(C)CN(c2c(Cl)cccc2Cl)C3=O)cc1 [Example 40, 3-(2,6-dichlorophenyl)-7-((4-((2R,5S)-2,5-dimethylpiperazin-1-yl)phenyl)amino)-1-methyl-2,3-dihydropyrimido[4,5-d]pyrimidin-4(1H)-one]
≤ 15	100 to 1000	CN1CN(c2c(Cl)cccc2Cl)C(=O)c2cnc(Nc3ccc(N4CCN[C@@H](CO)C4)cc3)nc21 [Example 19, (R)-3-(2,6-Dichlorophenyl)-7-((4-(3-(hydroxymethyl)piperazin-1-yl)phenyl)amino)-1-methyl-2,3-dihydropyrimido[4,5-d]pyrimidin-4(1H)-one]
≤ 15	100 to 1000	COCc1cc(Nc2ncc3c(n2)N(C)CN(c2c(Cl)cccc2Cl)C3=O)ccc1N1CCNCC1 [Example 31, 3-(2,6-dichlorophenyl)-7-((3-(methoxymethyl)-4-(piperazin-1-yl)phenyl)amino)-1-methyl-2,3-dihydropyrimido[4,5-d]pyrimidin-4(1H)-one]
≤ 15	100 to 1000	COCc1cc(Nc2ncc3c(n2)N(C)CN(c2c(Cl)cccc2Cl)C3=O)ccc1N1CCN[C@H](C)C1 [Example 59, (R)-3-(2,6-dichlorophenyl)-7-((3-(methoxymethyl)-4-(3-methylpiperazin-1-yl)phenyl)amino)-1-methyl-2,3-dihydropyrimido[4,5-d]pyrimidin-4(1H)-one]
15 to 50	≤ 100	C[C@@H]1CN(c2ccc(Nc3ncc4c(n3)N(C)CN(c3c(Cl)cccc3Cl)C4=O)cc2)[C@@H](C)CN1 [Example 80, 3-(2,6-dichlorophenyl)-7-((4-((2S,5R)-2,5-dimethylpiperazin-1-yl)phenyl)amino)-1-methyl-2,3-dihydropyrimido[4,5-d]pyrimidin-4(1H)-one]
≤ 15	100 to 1000	C[C@@H]1CN(c2ccc(Nc3ncc4c(n3)N(C)CN(c3c(Cl)cccc3Cl)C4=O)cc2F)CCN1 [Example 43, (R)-3-(2,6-dichlorophenyl)-7-((3-fluoro-4-(3-methylpiperazin-1-yl)phenyl)amino)-1-methyl-2,3-dihydropyrimido[4,5-d]pyrimidin-4(1H)-one]
15 to 50	≤ 100	CC(C)N1CCN(c2ccc(Nc3ncc4c(n3)N(C)CN(c3c(Cl)cccc3Cl)C4=O)cc2CO)CC1 [Example 21, 3-(2,6-Dichlorophenyl)-7-((3-(hydroxymethyl)-4-(4-isopropylpiperazin-1-yl)phenyl)amino)-1-methyl-2,3-dihydropyrimido[4,5-d]pyrimidin-4(1H)-one]
≤ 15	≤ 100	COC[C@H]1CN(c2ccc(Nc3ncc4c(n3)N(C)CN(c3c(Cl)cccc3Cl)C4=O)cc2)CCN1 [Example 60, (R)-3-(2,6-dichlorophenyl)-7-((4-(3-(methoxymethyl)piperazin-1-yl)phenyl)amino)-1-methyl-2,3-dihydropyrimido[4,5-d]pyrimidin-4(1H)-one]
≤ 15	≤ 100	CN1CN(c2c(F)cccc2Cl)C(=O)c2cnc(Nc3ccc(N4CCNCC4)cc3)nc21 [Example 25, 3-(2-Chloro-6-fluorophenyl)-1-methyl-7-((4-(piperazin-1-yl)phenyl)amino)-2,3-dihydropyrimido[4,5-d]pyrimidin-4(1H)-one]
